Consider 56 molecules from US7598397B2, “Sulfonamide peri-substituted bicyclics for occlusive artery disease” (deCODE genetics ehf, priority 2004, dated 2009).

The target of this assay is T1, prostanoid EP3 receptors (Homo sapiens, UniProt P43115).
T1 sequence (P43115 1-390): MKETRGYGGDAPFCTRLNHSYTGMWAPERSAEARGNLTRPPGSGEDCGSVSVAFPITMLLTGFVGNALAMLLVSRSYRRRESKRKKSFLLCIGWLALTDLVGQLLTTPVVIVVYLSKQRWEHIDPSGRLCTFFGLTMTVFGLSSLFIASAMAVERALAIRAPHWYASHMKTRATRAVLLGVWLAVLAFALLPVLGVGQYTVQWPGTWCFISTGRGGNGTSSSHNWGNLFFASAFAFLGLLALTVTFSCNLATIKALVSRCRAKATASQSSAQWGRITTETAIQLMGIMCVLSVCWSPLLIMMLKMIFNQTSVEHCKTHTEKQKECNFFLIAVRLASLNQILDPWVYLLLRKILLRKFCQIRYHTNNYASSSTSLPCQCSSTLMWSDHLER
Briefly: binding on prostanoid EP3 receptors (method of Abramovitz et al.). To be noted: read-out: Activity (EP3 receptor binding, IC50 class). On the procedure: The compounds of the invention were assayed for their binding on prostanoid EP3 receptors according to the method of Abramovitz et al. [Bioch. Biophys.
As for `CC12CCCC(C=CC(=O)NS(=O)(=O)c3cc(F)c(F)cc3F)=C1N(Cc1cccc(Cl)c1Cl)C(=O)C2` (centres unmarked) [Compound P296], the IC50 was below 1000 nM.

For `Cn1cc(C=CC(=O)NS(=O)(=O)c2c(F)cccc2F)c2c(Oc3ccc4ccccc4c3)cccc21` [Compound P360], the IC50 is below 1000 nM.

For the molecule `CC12CCCC(C=CC(=O)NS(=O)(=O)c3ccc(OC(F)(F)F)cc3)=C1N(Cc1ccc3ccccc3c1)C(=O)C2` (centres unmarked) [Compound P269], the IC50 was below 1000 nM.

For `Cc1cn(Cc2cn3ccccc3n2)c2c(/C=C/C(=O)NS(=O)(=O)c3cccc(Cl)c3)cc(F)cc12` [Compound P400], the IC50 is below 1000 nM.

As to `O=C(COc1cccc2c1N(Cc1ccc(Cl)cc1)C(=O)CO2)NS(=O)(=O)c1cccs1` [Compound P025], the IC50 was above 10000 nM.

Take `CC1(F)C(=O)N(Cc2ccc3ccccc3c2)c2c(C=CC(=O)NS(=O)(=O)c3cc(Cl)c(Cl)s3)cccc21` (centres unmarked) [Compound P161]: the IC50 was below 1000 nM.

`CN1C(=O)C(=Nc2ccc3ccccc3c2)c2c(C=CC(=O)NS(=O)(=O)c3cc(Cl)c(Cl)s3)cccc21` [Compound P245]: the IC50 is below 1000 nM.

Regarding `Cn1cc(C=CC(=O)NS(=O)(=O)c2cc(F)c(F)cc2F)c2c(Oc3cnc4ccccc4n3)cccc21` [Compound P394], the IC50 is below 1000 nM.

`Cc1cn(Cc2ccc3ccccc3c2)c2c(CCC(=O)NS(=O)(=O)c3cc(Cl)c(Cl)s3)cccc12` [Compound P073]: the IC50 was below 1000 nM.

Turning to `COc1cccc(CN2C(=O)CC3(C)CCCC(C=CC(=O)NS(=O)(=O)c4cc(Cl)c(Cl)s4)=C23)c1` (centres unmarked) [Compound P260], the IC50 was below 1000 nM.

For `Cc1ccc(CN2C(=O)COc3cccc(OCC(=O)NS(=O)(=O)c4cccs4)c32)cc1C` [Compound P020], the IC50 lay within 1000 to 10000 nM.

For `Cc1cn(Cc2ccc(OC(F)F)cc2)c2c(/C=C/C(=O)NS(=O)(=O)c3cc(Cl)c(Cl)s3)cccc12` [Compound P145], the IC50 is below 1000 nM.

As to `O=C(Nc1cccc2c1N(Cc1ccc3ccccc3c1)C(=O)CO2)C(=O)NS(=O)(=O)c1cccs1` [Compound P019, N-(4-Naphthalen-2-ylmethyl-3-oxo-3,4-dihydro-2H-benzo[1,4]oxazin-5-yl)-2-oxo-2-(thiophen-2-sulfonylamino)-acetamide], the IC50 was in the range of 1000 to 10000 nM.

As to `CC12CCCC(C=CC(=O)NS(=O)(=O)c3ccc(F)c(F)c3)=C1N(Cc1cccc(Cl)c1Cl)C(=O)C2` (centres unmarked) [Compound P297], the half-maximal inhibitory concentration (IC50) is below 1000 nM.

With `CN1C(=O)C(C)(Cc2ccc3ccccc3c2)c2c(CCC(=O)NS(=O)(=O)c3cc(Cl)c(Cl)s3)cccc21` (centres unmarked) [Compound P156], the IC50 is below 1000 nM.

For the molecule `Cc1cn(CCC(=O)NS(=O)(=O)c2cc(Cl)c(Cl)s2)c2c(Oc3ccc(Cl)cc3Cl)cc(F)cc12` [Compound P384], the IC50 is below 1000 nM.

As to `Cc1cn(CC2CCOCC2)c2c(/C=C/C(=O)NS(=O)(=O)c3cc(Cl)c(Cl)s3)cccc12` [Compound P144], the IC50 is below 1000 nM.

As to `CC1C(=O)N(Cc2ccc(Cl)cc2Cl)c2c(C=CC(=O)NS(=O)(=O)c3cccs3)cc(F)cc21` (centres unmarked) [Compound P065], the IC50 was below 1000 nM.

In the case of `Cn1cc(/C=C/C(=O)NS(=O)(=O)c2cc(F)c(F)cc2F)c2c(Oc3ccc4ccccc4c3)cccc21` [Compound P343], the IC50 was below 1000 nM.

`Cn1nnnc1Sc1c[nH]c2cccc(OCC(=O)NS(=O)(=O)c3cc(Cl)c(Cl)s3)c12` [Compound P227]: the half-maximal inhibitory concentration (IC50) is below 1000 nM.

Regarding `O=C(C=Cc1cccc2c1N(Cc1ccc3ccccc3c1)C(=O)C2=O)NS(=O)(=O)c1cccs1` [Compound P096], the IC50 was below 1000 nM.

`CC1(C)C(=O)N(Cc2ccc(Cl)cc2Cl)c2c(C=CC(=O)NS(=O)(=O)c3cc(Cl)c(Cl)s3)cccc21` [Compound P131]: the IC50 was below 1000 nM.

With `O=C(COc1cccc2c1N(Cc1ccccc1C(F)(F)F)C(=O)CO2)NS(=O)(=O)c1cccs1` [Compound P031], the IC50 lay within 1000 to 10000 nM.

In the case of `O=C(CCc1cccc2c1N(Cc1ccc3ccccc3c1)C(=O)C21OCCO1)NS(=O)(=O)c1cccs1` [Compound P097], the IC50 is below 1000 nM.

For the molecule `Cc1cn(Cc2ccc(Cl)cc2Cl)c2c(CCC(=O)NS(=O)(=O)c3cc(Cl)c(Cl)s3)cccc12` [Compound P072], the IC50 is below 1000 nM.

With `CC12CCCC(C=CC(=O)NS(=O)(=O)c3ccc(Cl)s3)=C1N(Cc1ccc(Cl)cc1Cl)C(=O)C2` (centres unmarked) [Compound P279], the IC50 was below 1000 nM.

As to `COc1ccc(S(=O)(=O)c2c[nH]c3cccc(OCC(=O)NS(=O)(=O)c4cc(Cl)c(Cl)s4)c23)cc1` [Compound P210], the IC50 was below 1000 nM.

As for `O=C(COc1cccc2c1N(Cc1ccc(F)cc1)C(=O)CO2)NS(=O)(=O)c1cccs1` [Compound P024], the IC50 was above 10000 nM.

Turning to `Cc1cn(Cc2ccc3c(c2)OCO3)c2c(/C=C/C(=O)NS(=O)(=O)c3cccs3)cccc12` [Compound P101], the half-maximal inhibitory concentration (IC50) was below 1000 nM.

In the case of `Cc1nc2cccc(OCC(=O)NS(=O)(=O)c3cccs3)c2n1Cc1ccc2ccccc2c1` [Compound P037, Thiophen-2-sulfonic acid [2-(2-methyl-3-naphthalen-2-ylmethyl-3H-benzoimidazol-4-yloxy)-acetyl] amide], the IC50 lay within 1000 to 10000 nM.

Consider `Cc1cn(CCC(=O)NS(=O)(=O)c2cccc(Cl)c2)c2c(Oc3ccc(Cl)cc3Cl)cc(F)cc12` [Compound P385], for which the IC50 was below 1000 nM.

Take `O=C(C=Cc1cccc2c1N(Cc1ccc3ccccc3c1)C(=O)C21OCCO1)NS(=O)(=O)c1cc(Cl)c(Cl)s1` [Compound P114]: the IC50 was below 1000 nM.

With `CC12CCCC(C=CC(=O)NS(=O)(=O)c3cc(Cl)cc(Cl)c3)=C1N(Cc1ccc(Cl)cc1Cl)C(=O)C2` (centres unmarked) [Compound P280], the IC50 was below 1000 nM.

With `COc1cccc(Cn2cc(C)c3cccc(/C=C/C(=O)NS(=O)(=O)c4cc(Cl)c(Cl)s4)c32)c1` [Compound P142], the IC50 was below 1000 nM.

On to `CC12CCCC(/C=C/C(=O)NS(=O)(=O)c3cc(Cl)c(Cl)s3)=C1N(Cc1ccc(F)c(F)c1)C(=O)C2` (centres unmarked) [Compound P264], for which the IC50 is below 1000 nM.

With `O=C(C=Cc1cccc2c1N(Cc1ccc(Cl)cc1Cl)C(=O)C2)NS(=O)(=O)c1cc(Cl)c(Cl)s1` [Compound P127], the IC50 is below 1000 nM.

With `Cc1cn(CCC(=O)NS(=O)(=O)c2cc(F)c(F)cc2F)c2c(Oc3ccc4ccccc4c3)cc(F)cc12` [Compound P378, 2,4,5-Trifluoro-N-{3-[5-fluoro-3-methyl-7-(naphthalen-2-yloxy)-indol-1-yl]-propionyl}-benzenesulfonamide], the IC50 was below 1000 nM.

On to `O=C(COc1cccc2[nH]cc(Sc3ccc4ccccc4c3)c12)NS(=O)(=O)c1cccc(Cl)c1` [Compound P184], for which the IC50 is below 1000 nM.

As to `CC12CCCC(C=CC(=O)NS(=O)(=O)c3cccs3)=C1N(Cc1ccc(Cl)cc1Cl)C(=O)C2` (centres unmarked) [Compound P276], the IC50 was below 1000 nM.

Turning to `CC(=O)Nc1ccc(Sc2c[nH]c3cccc(OCC(=O)NS(=O)(=O)c4cc(Cl)c(Cl)s4)c23)cc1` [Compound P233], the IC50 was below 1000 nM.

With `Cc1cn(Cc2ccccc2)c2c(/C=C/C(=O)NS(=O)(=O)c3cc(Cl)c(Cl)s3)cccc12` [Compound P122], the IC50 was below 1000 nM.

For the molecule `Cn1cc(C=CC(=O)NS(=O)(=O)c2cc(F)cc(F)c2)c2c(Oc3ccc4ccccc4c3)cccc21` [Compound P361], the IC50 was below 1000 nM.

In the case of `Cc1ccc(S(=O)(=O)c2c[nH]c3cccc(OCC(=O)NS(=O)(=O)c4cc(Cl)c(Cl)s4)c23)c(C)c1` [Compound P172], the IC50 is below 1000 nM.

In the case of `O=C(COc1cccc2oc(=O)n(Cc3ccc(Cl)c(Cl)c3)c12)NS(=O)(=O)c1cccs1` [Compound P051], the IC50 is below 1000 nM.

As to `O=C(COc1cccc2c1N(Cc1ccc(OC(F)F)cc1)C(=O)CO2)NS(=O)(=O)c1cccs1` [Compound P026], the IC50 is 1000 to 10000 nM.

As to `O=C(COc1cccc2[nH]cc(S(=O)(=O)c3ccc4ccccc4c3)c12)NS(=O)(=O)c1cccc(Cl)c1` [Compound P192], the IC50 was below 1000 nM.

With `Cn1cc(C=CC(=O)NS(=O)(=O)c2ccc(F)cc2)c2c(Oc3ccc4ccccc4c3)cccc21` [Compound P351], the IC50 is below 1000 nM.

Consider `CC1C(=O)N(Cc2ccc3ccccc3c2)c2c(C=CC(=O)NS(=O)(=O)c3cccs3)cccc21` (centres unmarked) [Compound P059], for which the IC50 is below 1000 nM.

As to `CC(C)C1C(=O)N(Cc2ccc(Cl)cc2Cl)c2c(CCC(=O)NS(=O)(=O)c3cccs3)cccc21` (centres unmarked) [Compound P093], the IC50 was 1000 to 10000 nM.

Turning to `CC1C(=O)N(Cc2ccc(Cl)cc2Cl)c2c(C=CC(=O)NS(=O)(=O)c3cccs3)cccc21` (centres unmarked) [Compound P058], the IC50 was below 1000 nM.

`O=C(C=Cc1cnn2ccn(Cc3ccc4ccccc4c3)c12)NS(=O)(=O)c1cccs1` [Compound P034]: the IC50 was below 1000 nM.

As for `O=C(/C=C/c1cccc2c1N(Cc1ccc3ccccc3c1)CC2)NS(=O)(=O)c1cccs1` [Compound P003], the IC50 was below 1000 nM.

Regarding `Cc1cn(Cc2ccc3ccccc3c2)c2c(/C=C/C(=O)N(C)S(=O)(=O)c3cc(Cl)c(Cl)s3)cc(F)cc12` [Compound P076], the IC50 was below 1000 nM.

As to `Cn1cc(C=CC(=O)NS(=O)(=O)c2cc(F)c(F)cc2F)c2c(Oc3ccc(F)cc3F)cccc21` [Compound P324], the IC50 is below 1000 nM.

Consider `Cc1cn(Cc2ccc(F)c(F)c2)c2c(/C=C/C(=O)NS(=O)(=O)c3cc(Cl)c(Cl)s3)cccc12` [Compound P135], for which the IC50 is below 1000 nM.

For the molecule `Cn1cc(C=CC(=O)NS(=O)(=O)c2c(F)c(F)c(F)c(F)c2F)c2c(Oc3ccc4ccccc4c3)cccc21` [Compound P373], the IC50 was below 1000 nM.
